Experimental findings from patent US8604195B2, “Substituted bicyclic piperidinyl- and piperazinyl-sulfonamides useful to inhibit 11β-hydroxysteroid dehydrogenase type-1” (Merck Sharp & Dohme Corp., priority 2007, dated 2013) are described below.

The target of one test is Human 11-β-HSD1 (Homo sapiens, UniProt P28845). Kind of test: 11β-HSD1 enzymatic activity, 3H-cortisone SPA, human enzyme. To be noted: Human 11-β-HSD1 IC50 (nM), membrane, 125 nM 3H-cortisone, 1 hr room temperature.
For the next test, the target named is Mouse 11-β-HSD1 (Mus musculus, UniProt P50172). Kind of test: 11β-HSD1 enzymatic activity, 3H-cortisone SPA, mouse enzyme. To be noted: Mouse 11-β-HSD1 IC50 (nM), membrane, 125 nM 3H-cortisone, 1 hr room temperature.
Sequence of Mouse 11-β-HSD1 (P50172 whole entry): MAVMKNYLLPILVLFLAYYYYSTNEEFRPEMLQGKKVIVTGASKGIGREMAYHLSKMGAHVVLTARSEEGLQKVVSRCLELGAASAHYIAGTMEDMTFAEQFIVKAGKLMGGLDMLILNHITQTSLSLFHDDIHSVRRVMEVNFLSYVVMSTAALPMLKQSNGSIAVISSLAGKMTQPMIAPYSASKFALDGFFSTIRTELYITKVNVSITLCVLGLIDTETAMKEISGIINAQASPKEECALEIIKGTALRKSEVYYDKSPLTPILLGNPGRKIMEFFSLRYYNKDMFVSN

Structures are written as SMILES. Where only a bound is given, the exact number is not on record here.

Sequence of Human 11-β-HSD1 (P28845 whole entry): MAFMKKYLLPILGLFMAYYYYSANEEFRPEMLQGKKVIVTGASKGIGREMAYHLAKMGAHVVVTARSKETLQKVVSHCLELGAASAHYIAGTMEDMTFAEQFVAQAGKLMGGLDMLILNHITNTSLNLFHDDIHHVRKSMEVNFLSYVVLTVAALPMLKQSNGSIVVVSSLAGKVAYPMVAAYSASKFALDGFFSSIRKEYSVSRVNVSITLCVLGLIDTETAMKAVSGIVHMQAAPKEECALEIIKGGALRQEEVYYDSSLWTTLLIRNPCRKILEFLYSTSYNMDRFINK
Procedure for Human 11-β-HSD1: (§1) The reaction was incubated at room temperature for 1 hr before it was stopped by addition of 50 μM buffer containing 20 mM NaPO4 pH 7.5, 30 μM 18β-glycyrrhetinic acid, 1 μg/ml monoclonal anti-cortisol antibody (Biosource) and 2 mg/ml anti-mouse antibody coated scintillation proximity assay (SPA) beads (Amersham Bioscience). The mixture was incubated at room temperature for 2 hrs with vigorous shaking and analyzed on TopCount scintillation counter.
Procedure for Mouse 11-β-HSD1: as §1

In the case of `CC(C)(C)c1ccc(S(=O)(=O)N2C3CCC2CC(Oc2ccc(C#N)cn2)C3)cc1` (single isomer, unassigned) [Compound 5], the IC50 was more than 10000 nM on Human 11-β-HSD1 and 23800 nM on Mouse 11-β-HSD1.
On to `CC(C)(C)c1ccc(S(=O)(=O)N2C3CCC2CC(Oc2ccc(C#N)cn2)C3)cc1` (single isomer, unassigned) [Compound 6], for which the IC50 against Human 11-β-HSD1 came to 413 nM; against Mouse 11-β-HSD1, 5590 nM.
Turning to `CC(C)(C)c1ccc(S(=O)(=O)N2C3CCC2CC(O)(Cc2ccccc2)C3)cc1` (stereo not drawn) [Compound 15], the IC50 at Human 11-β-HSD1 came to 740 nM; at Mouse 11-β-HSD1 it was 114 nM.
As to `CC(C)(C)c1ccc(S(=O)(=O)N2C3CCC2CC(O)(c2ccccc2)C3)cc1` (stereo not drawn) [Compound 16], the midpoint of inhibition on Mouse 11-β-HSD1, the IC50, lay at 138 nM. That is a sub-micromolar value.
Take `CCC(C)(C)c1ccc(S(=O)(=O)N2C[C@@H]3C[C@H]2CN3C)cc1` [Compound 21]: the IC50 came out at 333 nM against Human 11-β-HSD1 and 258 nM on Mouse 11-β-HSD1.
